From patent US10520509B2 (Washington State University, priority 2016, dated 2019)

Legend:
HeLa cells [1] = assay: Cell viability assay (CCK-8) of DDP probe; format: cell-based; conditions: 10-100 μM, 6 h
Procedure: (§1) In another embodiment the DDP probes has been designed to visuals exogenous sulfur species in a living system. […] Additionally, the selectivity of the probes can be seen in FIG. 10. […] The probe (20 μm) was applied to the cells for 30 minutes, after which the extracellular probe was washed off and only a weak fluorescence was observed.
HeLa cells were cultured in DMEM high glucose medium supplemented with 10% fetal bovine serum (FBS) at 37° C. under an atmosphere of 5% CO2 and 95% air. The cells were then inoculated in 96-well plates and cultured overnight. DDP-1 in FBS-free medium were administered and cultured for 6 h. The cell viability was measured by cell counter kit (CCK)-8. The absorbance at 450 nm was measured with a microplate reader. Optical density (OD) of the 9 wells in the indicated groups was used to calculate percentage of cell viability according to the formula below: Percentage of cell viability=OD treatment group/OD control group×100% Cell Culture and Fluorescence Imaging

HeLa cells [2] = assay: Fluorescence imaging of H2S and H2Sn with DDP probe in cells; format: cell-based; conditions: probe 20 μm 30 min
Procedure: as §1
The cells were grown on glass-bottom culture dishes (Corning Inc.) in DMEM supplemented with 10% (v/v) FBS, penicillin (100 U/mL) and streptomycin (100 μg/mL) at 37° C. under a humidified atmosphere containing 5% CO2. Before use, the adherent cells were washed one time with FBS-free DMEM. […] After removal of excess probe and washed with PBS (pH 7.4), the cells were incubated with 30 μM Na2S2 or 30 μM Na2S4 at room temperature for 20 min in PBS buffer (pH 7.4, containing 100 μM CTAB). Cell imaging was carried out after removal of the culture solution. For images of CSE-overexpressed COS7 cells.

## [N-]=[N+]=Nc1ccc2c(CC(=O)N3CCN(c4ccc5c(c4)Oc4cc(OC(=O)c6ccccc6SC(=O)c6ccccc6)ccc4C54OC(=O)c5ccccc54)CC3)cc(=O)oc2c1 (stereo not drawn) [DDP-1]
HeLa cells [1]
  cytotoxicity (cell viability): low cytotoxicity
HeLa cells [2]; Na2S 100 μm, blue and green channel
  fluorescence in cells after Na2S treatment: apparent fluorescence enhancement
HeLa cells [2]; blue vs green channel
  fluorescence in cells after Na2S2 or in situ generated H2Sn: blue channel decreased with a coinstantaneous increase in the green channel
